{
  "source": "paper PMC5679629",
  "about": "“Flavin-containing monooxygenase 3 (FMO3) role in busulphan metabolic pathway” (PLoS ONE, 2017)",
  "key": {"[1]": {"biological_target": "T1, CYP2B6 (Homo sapiens, UniProt P20813)", "T1 construct": "purchased BD Biosciences; host or cells: baculovirus infected insect cells", "T1 sequence (P20813 1-491)": "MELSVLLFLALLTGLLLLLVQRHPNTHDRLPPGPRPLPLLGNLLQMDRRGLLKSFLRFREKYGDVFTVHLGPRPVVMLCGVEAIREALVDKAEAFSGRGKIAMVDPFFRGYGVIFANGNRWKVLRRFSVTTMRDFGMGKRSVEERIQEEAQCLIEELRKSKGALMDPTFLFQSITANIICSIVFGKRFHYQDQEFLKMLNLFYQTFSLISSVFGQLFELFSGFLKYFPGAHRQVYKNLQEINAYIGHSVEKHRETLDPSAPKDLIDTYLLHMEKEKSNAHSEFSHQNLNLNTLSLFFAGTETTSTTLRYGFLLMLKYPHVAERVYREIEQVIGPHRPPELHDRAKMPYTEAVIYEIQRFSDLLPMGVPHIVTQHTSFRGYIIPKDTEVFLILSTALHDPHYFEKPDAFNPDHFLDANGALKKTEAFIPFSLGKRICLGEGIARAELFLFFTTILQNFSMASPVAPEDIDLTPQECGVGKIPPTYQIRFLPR", "assay": "THT disappearance with recombinant cDNA-expressed enzyme microsomes", "format": "in vitro ADME", "conditions": "25μM THT, 35pmol CYP/mL", "experimental": "(§1) To identify the enzymes involved in Bu metabolism, 11 microsomal batches (BD Biosciences, Stockholm, Sweden), each containing a separate cDNA-expressed enzyme, were incubated with 25μM THT. The microsomes contained FMO3, CYP1A1, CYP1A2, CYP2B6, CYP2C8, CYP2C9, CYP2C19, CYP2D6, CYP2E1, CYP3A4 or CYP4A11. Time curves (0, 5, 15, 30 and 60min) were performed at a concentration of 0.35mg protein /mL for FMO3 and 35pmol CYP/mL for the CYP enzymes. The recombinant enzymes were produced from human cDNA expressing each of them using baculovirus expression system. Baculovirus infected insect cells were used to prepare these microsomes.\n(§2) Incubations were performed in triplicate and negative controls (excluding NADPH, microsomes, THT or by terminating the incubations before the addition of NADPH) were run in parallel.\n(§3) To measure THT and the secondary metabolite, sulfolane, the reactions were terminated by adding dichloromethane. Samples (180μL) were added to 10μM nicotine (20μL, Merck, Hoherbrunn, Germany), used as an internal standard, before extraction. The matrix was extracted by liquid-liquid extraction with dichloromethane (equal volumes, 200μL) after 30 sec of high speed vortexing. After extraction and centrifugation at 16000 g for 10 min, the organic phase was transferred into GC-MS tubes. […] Samples (180μL) were added to 10 μM of 3-methylsulfolane (20μL, TCI, Tokyo, Japan), used as an internal standard. The matrix was lyophilized (< 1 mbar at 40°C under N2 stream) to dryness, the residue was dissolved in 10 μL water and 200 μL of ethyl acetate was added for extraction. Samples were vortexed for 30 sec at high speed and centrifuged at 16000 g for 10 min. The organic phase was transferred to GC-MS tubes.\n(§4) Concentrations of THT and its metabolites were measured using GC-MS [18] after validation for use with microsomal incubations according to the international guidelines."}, "[2]": {"biological_target": "T2, CYP2C8 (Homo sapiens, UniProt P10632)", "T2 construct": "purchased BD Biosciences; host or cells: baculovirus infected insect cells", "T2 sequence (P10632 1-490)": "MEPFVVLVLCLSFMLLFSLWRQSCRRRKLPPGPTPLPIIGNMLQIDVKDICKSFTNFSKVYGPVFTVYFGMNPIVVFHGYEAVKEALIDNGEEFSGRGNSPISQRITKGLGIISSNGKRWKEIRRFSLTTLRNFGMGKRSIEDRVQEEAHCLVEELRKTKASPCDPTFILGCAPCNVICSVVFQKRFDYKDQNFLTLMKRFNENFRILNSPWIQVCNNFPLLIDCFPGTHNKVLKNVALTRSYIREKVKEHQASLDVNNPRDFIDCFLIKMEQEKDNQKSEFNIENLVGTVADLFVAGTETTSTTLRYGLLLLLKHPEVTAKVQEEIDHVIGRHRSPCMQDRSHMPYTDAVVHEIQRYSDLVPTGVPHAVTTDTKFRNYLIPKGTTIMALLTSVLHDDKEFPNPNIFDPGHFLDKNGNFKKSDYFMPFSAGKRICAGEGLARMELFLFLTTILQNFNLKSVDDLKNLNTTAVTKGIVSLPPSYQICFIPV", "assay": "THT disappearance with recombinant cDNA-expressed enzyme microsomes", "format": "in vitro ADME", "conditions": "25μM THT, 35pmol CYP/mL", "experimental": "as §1, §2, §3, §4"}},
  "data": [
    {"smiles": "C1CCSC1", "note": "[THT, tetrahydrothiophene]", "values": [
      {"measurement": "v0", "setting": "[1]", "result": 1.76, "unit": "nmol/min/mL"},
      {"measurement": "v0/CYP", "setting": "[1]", "result": 0.05, "unit": "nmol/min/pmol CYP"},
      {"measurement": "v0", "setting": "[2]", "result": 2.45, "unit": "nmol/min/mL"},
      {"measurement": "v0/CYP", "setting": "[2]", "result": 0.07, "unit": "nmol/min/pmol CYP"}
    ]}
  ]
}
